Experiments:
[1] = system: mAb 2C1; assay: Competitive immunoassay: inhibition of total PSA specific mAb binding to PSA; conditions: FIG. 3A
Method: (§1) (A). Two-site combinations of capture antibody and Europium chelate (Eu)-labeled antibody was used to determine the inhibition of mAbs binding to PSA by the synthetic peptides derived from PSA. Briefly, free PSA (0.05 pmol/well, Wallac, O Y, Turku, Finland) in 0.100 mL of Delfia® buffer (Wallac, O Y) (i.e., a blocking buffer containing 50 mM Tris-HCl (pH 7.75), 0.9% NaCl, 0.05% Na-azide, 0.01% Tween 40, 0.05% bovine-gammaglobulin, 20 μM DTPA, 0.5% BSA, 10 μg/mL native mouse IgG, 5 μg/mL denatured mouse IgG and 20 μg/mL cherry red) was added to microtiter wells coated with the various anti-PSA antibodies being used for capture (1-2 μg/well of antibody) and incubated for 1 hour at 25° C. […] After another four washings, the amount of bound Eu-labeled antibody was determined with time-resolved fluorometry previously described (Pettersson et al., Clin. Chem. 41:1480-88 (1995) & Hemmilia et al., Anal. Biochem. 137:335-43 (1984)).
(§2) (B). […] After another four washings, 100 μl/well of p-nitrophenyl phosphate substrate (Pierce Chemical Co., Rockford, Ill.) was added and the absorbance was measured at 405 nm using an automated microtiter plate reader.

[2] = system: mAb H164; assay: as above; conditions: FIG. 3A
Method: as §1, §2

[3] = system: rabbit anti-ABT4 antiserum; assay: Indirect ELISA, reactivity and specificity of anti-ABT4 antiserum; format: binding; conditions: FIG. 6, relative affinity ABT4 >PSA >hK2a
Method: (§3) An indirect ELISA assay was used to determine the reactivity and specificity of anti-PSA mAbs and pAbs. For the assay, 96 well microtiter plates (Costar, Cambridge, MA) were coated with PSA (0.5 micrograms/well, Abbott Laboratories, in house product, code# 91969, purified from seminal fluid) or peptides (0.1 mg/well) in 0.1 M carbonate-bicarbonate buffer (pH 9.0) overnight at 4° C. The plates were blocked with 1% BSA in PBS buffer (0.008 M sodium phosphate, 0.002M potassium phosphate, 0.14 M sodium chloride and 0.01M potassium chloride, pH 7.4) for 1 hour, then anti-PSA mAbs or pAbs (100 microliters/well) at varying dilutions were added. […] After washing, 100 microliters/well of p-nitrophenyl phosphate substrate (Pierce, Rockford, Ill.) was added and the absorbance was measured at 405 nm using an automated microtiter plate reader (Molecular Devices Corp. Menlo Oaks, Calif.). […]
The reactivity and specificity of Anti-ABT4 antiserum were evaluated by estimating the relative binding affinities (Wang et al., […] 39:1-5 (1982)) for PSA, PSA peptide ABT4 and hK2 peptide (hK2a) as described in Example I. The indirect ELISA assay format described in Section C-I of Example I was used for these studies and the data are shown in FIG. 6. […]

[4] = system: mAb H164; assay: Indirect ELISA, binding specificity of mAb H164; conditions: FIG. 3C
Method: (§4) An indirect ELISA assay was used to determine the reactivity and specificity of anti-PSA mAbs and pAbs. For the assay, 96 well microtiter plates (Costar, Cambridge, MA) were coated with PSA (0.5 micrograms/well, Abbott Laboratories, in house product, code# 91969, purified from seminal fluid) or peptides (0.1 mg/well) in 0.1 M carbonate-bicarbonate buffer (pH 9.0) overnight at 4° C. The plates were blocked with 1% BSA in PBS buffer (0.008 M sodium phosphate, 0.002M potassium phosphate, 0.14 M sodium chloride and 0.01M potassium chloride, pH 7.4) for 1 hour, then anti-PSA mAbs or pAbs (100 microliters/well) at varying dilutions were added. After incubation for 1 hour at 25° C., the wells were washed with PBS buffer containing 0.5% Tween 20, then 100 microliters/well of alkaline phosphatase-conjugated antibody (goat anti-mouse IgG or goat anti-rabbit IgG--from Pierce, Rockford, IL) at 5000 fold dilution was added and incubation continued for 1-2 hr at 25° C. After washing, 100 microliters/well of p-nitrophenyl phosphate substrate (Pierce, Rockford, Ill.) was added and the absorbance was measured at 405 nm using an automated microtiter plate reader (Molecular Devices Corp. Menlo Oaks, Calif.).

[5] = Immunization of rabbits with peptide coupled to KLH; format: in vivo; conditions: FIG. 5 / FIG. 6
Text: Antiserum was elicited by immunizing rabbits with PSA peptide ABT6 coupled to the carrier protein KLH (keyhole limpet hemocyanin) at Bio-Synthesis, Inc. (Lewisville, Tex.) using standard commercially available techniques.
Anti-ABT4 antiserum was elicited by immunizing two rabbits with PSA peptide ABT4 coupled to the carrier protein KLH at Bio-Synthesis, Inc.(Lewisville,Tex.).

[6] = system: known anti-PSA monoclonal antibodies; assay: Binding to known anti-PSA monoclonal antibodies (summary); conditions: summary statement
Method: as §4
(§5) (A). Two-site combinations of capture antibody and Europium chelate (Eu)-labeled antibody was used to determine the inhibition of mAbs binding to PSA by the synthetic peptides derived from PSA. Briefly, free PSA (0.05 pmol/well, Wallac, O Y, Turku, Finland) in 0.100 mL of Delfia® buffer (Wallac, O Y) (i.e., a blocking buffer containing 50 mM Tris-HCl (pH 7.75), 0.9% NaCl, 0.05% Na-azide, 0.01% Tween 40, 0.05% bovine-gammaglobulin, 20 μM DTPA, 0.5% BSA, 10 μg/mL native mouse IgG, 5 μg/mL denatured mouse IgG and 20 μg/mL cherry red) was added to microtiter wells coated with the various anti-PSA antibodies being used for capture (1-2 μg/well of antibody) and incubated for 1 hour at 25° C. (Free or total antibodies may be used.) After washing with Delfia® wash solution, peptides (62,500-1,000,000 molar excess to PSA) in […] Delfia® buffer were added together with the Europium chelate-labeled anti-PSA antibody (0.05 pmol), and incubation was continued for 1 hour at 25°0 C. After another four washings, the amount of bound Eu-labeled antibody was determined with time-resolved fluorometry previously described (Pettersson et al., Clin. Chem. 41:1480-88 (1995) & Hemmilia et al., Anal. Biochem. 137:335-43 (1984)).
as §2

[7] = system: rabbit anti-ABT6 antiserum; assay: Indirect ELISA, reactivity and specificity of anti-ABT6 antiserum; format: binding; conditions: FIG. 5
Method: as §3
The reactivity and specificity of antiserum anti-ABT6 was evaluated by estimating the relative binding affinities (Wang et al., Urology 39:1-5 (1982)) for PSA, PSA peptide ABT6 and hK2 peptide hK2b as described in Example I. The indirect ELISA format described in Section C-I of Example 1 was used for these studies and the data are shown in FIG. 5.

[8] = system: mAb 2E9; assay: Indirect ELISA, binding specificity of mAb 2E9; conditions: FIG. 2B
Method: as §4

[9] = system: mAb 2E9; assay: Competitive immunoassay: inhibition of mAb binding to PSA by synthetic peptides; conditions: competitive immunoassay section C-II-A; FIG. 2A
Method: as §5

[10] = system: mAb H68; assay: as above; conditions: competitive immunoassay section C-II-A; FIG. 2A
Method: as §5

[11] = system: mAb 9B10 (specific for free PSA); assay: as above
Method: as §5

[12] = system: mAb 5A10 (specific for free PSA); assay: as above; conditions: competitive immunoassay section C-II-A; FIG. 2A
Method: as §5

[13] = system: mAb 6:3; assay: as above; conditions: inhibition studies
Method: as §5

[14] = system: mAb 30:5; assay: as above; conditions: inhibition studies
Method: as §5

[15] = system: goat anti-PSA antiserum; assay: Direct ELISA with alkaline phosphatase-labeled goat anti-PSA antiserum; format: binding; conditions: peptides coated on microtiter plates; FIG. 4
Text: Synthetic peptides were also screened by a direct ELISA assay format which utilized a goat anti-PSA antiserum conjugated to alkaline phosphatase. In particular, peptides were coated on microtiter plates and detected by enzyme-labelled anti-PSA polyclonal antibodies. The goat anti-PSA antiserum was produced by immunization with free PSA. […] In addition to those epitopes identified by mAbs as described above, two new epitopes, ABT2 and ABT7, were identified by the anti-PSA antiserum.

Substance	binding of anti-ABT4 antiserum (relative binding affinity) [3]	binding of mAb H164 to coated peptide or PSA [4]	immunogenicity (ability to elicit antibodies) [5]	binding to several known anti-PSA monoclonal antibodies [6]	binding of anti-ABT6 antiserum (relative binding affinity) [7]	binding of mAb 2E9 to coated peptide or PSA [8]	further results
CLLGRHSLFHPEDTGQC [ABT4]	binds	bound specifically	immunogenic	specific binding	–	–	inhibition of PSA binding to mAb 2C1 [1]: 80%; inhibition of PSA binding to mAb H164 [2]: 90%
CMSLLKNRFLRPGDDSC [ABT6]	–	–	immunogenic	specific binding	high affinity	specific binding	binding to mAb 2E9 [9]: selectively bound; binding to mAb H68 [10]: selectively bound; binding to mAb 9B10 ([11]; competitive immunoassay section C-II-A, FIG. 2A): specific binding; binding to mAb 5A10 [12]: specific binding
CNRFLRPGDDSSC [ABT1, synthetic PSA peptide; short version of ABT6]	–	–	–	specific binding	–	–	inhibition of mAb 9B10 ([11]; inhibition studies): 40%; inhibition of mAb 6:3 [13]: 23%; inhibition of mAb 30:5 [14]: 50%
CWGSIEPEEFLTPKKLC [ABT2, synthetic PSA peptide]	–	–	–	specific binding	–	–	epitope identified by goat anti-PSA antiserum [15]: identified
PSA: Prostate specific antigen, Abbott Laboratories in house product, purified from seminal fluid	binds	bound specifically	–	–	high affinity	specific binding	–

From patent US6143509A, “Prostate specific antigen peptides and uses thereof” (Abbott Laboratories, priority 1996, dated 2000)
